Laboratory results reported in patent publication US7399638B2, “Prediction method for lipidosis” (Takeda Pharmaceutical Company Limited, priority 2003, dated 2008).
Like-named read-outs stand apart in the source and are kept apart here. Marks after values point to notes of the source that are not given here.

What was measured:
[1] = test system: Crj: CD(SD)IGS rats; experiment: Urinary PAG/hippuric acid ratio by 1H NMR in rats; settings: rat urine, 3 days, mean n = 3-4
[2] = test system: Crj: CD(SD)IGS rats; settings: rat, gavage once daily for 3 days; printed on the line of the lowest dose, dose group unclear
Experimental: Each test drug was administered by gavage at a dosing liquid volume of 10 mL/kg/day once daily for 3 days (4 days for the negative control). The animals were examined for mortality, general conditions, body weight, food consumption and the like using PM4800 (Mettler) and EB3200D (Shimadzu Corporation).

[3] = test system: Crj: CD(SD)IGS rats; settings: male, rat, in vivo, 3 days
Experimental: (§1) The following 10 kinds of commercially available drugs were examined as the test compounds for a potential of inducing PLsis by histopathological examination and peripheral blood lymphocyte testing.
(§2) The following experiments were performed using the prematurely autopsied animals.
(§3) The high-dose dosing suspension was diluted about 3 fold and 10 fold with dispersant/solvent to prepare intermediate- and low-dose dosing suspensions. […] [For LD50, the Summary Basis of Approval (FDA) for each drug was referenced to.]
(§4) The animals were examined for mortality, general conditions, body weight, food consumption and the like using PM4800 (Mettler) and EB3200D (Shimadzu Corporation).
Hematological examination was performed for parameters such as RBC count, hematocrit, hemoglobin concentration, mean corpuscular hemoglobin (MCH), mean corpuscular hemoglobin concentration (MCHC), mean corpuscular volume (MCV), platelet count, WBC count, reticulocyte count, differential WBC, and vacuolated lymphocyte ratio (for PLsis-inducing compounds only) using ADVIA120 (Bayer Medical Ltd.) and E-4000 (Sysmex Corporation).

[4] = test system: Crj: CD(SD)IGS rats; settings: rat urine, LC-MS/MS, 60 mg/kg/day by gavage for 7 days
Experimental: During that period, the animals were quarantined, examined for general conditions, and weighed. Animals showing no abnormalities were selected and randomly allocated to five groups for urine collection each comprising four males.
The animals were individually housed in wire-net-based metal cages, and the individual cages were placed on water-washable rack in a clean booth as randomized for the animal groups. Animal room environmental conditions comprised a room temperature of 20 to 26° C., a relative humidity of 40 to 70%, and a fresh air ventilation frequency of 8 to 25 times/hour, with a bright phase of 12 hours/day (lighting time: 7:00 am to 7:00 pm). The animals were fed a γ-ray-irradiated powder food (CR-LPF, Oriental Yeast Co., Ltd.) and had free access to the food along with tap water.
A dispersant/medium was added to each test material, and the mixture was stirred to prepare dosing suspensions.
Each test material was administered by gavage at a dosing suspension volume of 10 mL/kg/day once daily for 7 days.
After completion of the administration, pooled urine was collected with ice cooling from all animals under fasting and water denial for about 6 hours. […]
Quantitative analyses of rat urinary hippuric acid and PAG by LC-MS/MS were performed as described below. […]

[5] = test system: Crj: CD(SD)IGS rats; settings: rat, in vivo
Experimental: as §1, §2, §3, §4

[6] = from Summary Basis of Approval (FDA); species and route not given; cited from earlier work

NC12CC3CC(CC(C3)C1)C2 [Amantadine]
PAG + hippuric acid/creatinine ([1]; 75 mg/kg/day by gavage): 1.44 | PAG/PAG + hippuric acid ([1]; 75 mg/kg/day by gavage): 16.17% | PAG/creatinine (first term of PAG + hippuric acid) ([1]; 75 mg/kg/day by gavage): 0.23 | PAG/hippuric acid ([1]; 75 mg/kg/day by gavage): 19.31% | PAG + hippuric acid/creatinine ([1]; 250 mg/kg/day by gavage): 1.21 | PAG/PAG + hippuric acid ([1]; 250 mg/kg/day by gavage): 16.18% | PAG/creatinine (first term of PAG + hippuric acid) ([1]; 250 mg/kg/day by gavage): 0.20 | PAG/hippuric acid ([1]; 250 mg/kg/day by gavage): 19.69% | hippuric acid/creatinine (second term of PAG + hippuric acid) ([1]; 250 mg/kg/day by gavage): 1.02 | PAG + hippuric acid/creatinine ([1]; 750 mg/kg/day by gavage): 0.37 | PAG/PAG + hippuric acid ([1]; 750 mg/kg/day by gavage): 56.58% | PAG/creatinine (first term of PAG + hippuric acid) ([1]; 750 mg/kg/day by gavage): 0.21 | PAG/hippuric acid ([1]; 750 mg/kg/day by gavage): 130.33% | hippuric acid/creatinine (second term of PAG + hippuric acid) ([1]; 750 mg/kg/day by gavage): 0.16 | death (note beside the dose) [2]: (death)

CCN(CC)CCCC(C)Nc1c2ccc(Cl)cc2nc2ccc(OC)cc12 (stereo not drawn) [Quinacrine, quinacrine]
PAG + hippuric acid/creatinine ([1]; 60 mg/kg/day by gavage): 1.45 | PAG/PAG + hippuric acid ([1]; 60 mg/kg/day by gavage): 21.82* % | PAG/creatinine (first term of PAG + hippuric acid) ([1]; 60 mg/kg/day by gavage): 0.32 | PAG/hippuric acid ([1]; 60 mg/kg/day by gavage): 28.35* % | hippuric acid/creatinine (second term of PAG + hippuric acid) ([1]; 60 mg/kg/day by gavage): 1.13 | PAG + hippuric acid/creatinine ([1]; 200 mg/kg/day by gavage): 1.58 | PAG/PAG + hippuric acid ([1]; 200 mg/kg/day by gavage): 46.42* % | PAG/creatinine (first term of PAG + hippuric acid) ([1]; 200 mg/kg/day by gavage): 0.75 | PAG/hippuric acid ([1]; 200 mg/kg/day by gavage): 91.89* % | hippuric acid/creatinine (second term of PAG + hippuric acid) ([1]; 200 mg/kg/day by gavage): 0.83 | PAG + hippuric acid/creatinine ([1]; 600 mg/kg/day by gavage): 1.07* | PAG/PAG + hippuric acid ([1]; 600 mg/kg/day by gavage): 78.62* % | PAG/creatinine (first term of PAG + hippuric acid) ([1]; 600 mg/kg/day by gavage): 0.83 | PAG/hippuric acid ([1]; 600 mg/kg/day by gavage): 441.69* % | hippuric acid/creatinine (second term of PAG + hippuric acid) ([1]; 600 mg/kg/day by gavage): 0.24 | Mean vacuolated lymphocyte ratio ([3]; 60 mg/kg/day): 14% | Mean vacuolated lymphocyte ratio ([3]; 200 mg/kg/day): 32% | Mean vacuolated lymphocyte ratio ([3]; 600 mg/kg/day): 52% | PAG/hippuric acid concentration ratio compared to the control group [4]: increased | PAG/hippuric acid ratio ([4]; mean ± SD n = 4): 0.2178 ± 0.0919 | Histopathological changes (PLsis): Liver ([5]; 60 mg/kg/day): + | Histopathological changes (PLsis): Lung ([5]; 60 mg/kg/day): + | Histopathological changes (PLsis): Lymph node ([5]; 60 mg/kg/day): − | Histopathological changes (PLsis): Others ([5]; 60 mg/kg/day): − | Histopathological changes (PLsis): Spleen ([5]; 60 mg/kg/day): − | Histopathological changes (PLsis): Liver ([5]; 200 mg/kg/day): + | Histopathological changes (PLsis): Lung ([5]; 200 mg/kg/day): + | Histopathological changes (PLsis): Lymph node ([5]; 200 mg/kg/day): + | Histopathological changes (PLsis): Others ([5]; 200 mg/kg/day): − | Histopathological changes (PLsis): Spleen ([5]; 200 mg/kg/day): − | Histopathological changes (PLsis): Liver ([5]; 600 mg/kg/day): + | Histopathological changes (PLsis): Lung ([5]; 600 mg/kg/day): + | Histopathological changes (PLsis): Lymph node ([5]; 600 mg/kg/day): + | Histopathological changes (PLsis): Others ([5]; 600 mg/kg/day): − | Histopathological changes (PLsis): Spleen ([5]; 600 mg/kg/day): − | LD50 [6]: 900 mg/kg
